Experimental data reported in patent publication US20260078122A1, “INDAZOLE COMPOUNDS AS PKMYT1 KINASE INHIBITORS” (Hoffmann-La Roche Inc., priority 2023, published 2026).

biological target: T1, recombinant human Myt1 (full length PKMYT1) (Homo sapiens, UniProt Q99640); test: ADP-Glo assay (Myt1 kinase activity)
T1 sequence (Q99640 1-499): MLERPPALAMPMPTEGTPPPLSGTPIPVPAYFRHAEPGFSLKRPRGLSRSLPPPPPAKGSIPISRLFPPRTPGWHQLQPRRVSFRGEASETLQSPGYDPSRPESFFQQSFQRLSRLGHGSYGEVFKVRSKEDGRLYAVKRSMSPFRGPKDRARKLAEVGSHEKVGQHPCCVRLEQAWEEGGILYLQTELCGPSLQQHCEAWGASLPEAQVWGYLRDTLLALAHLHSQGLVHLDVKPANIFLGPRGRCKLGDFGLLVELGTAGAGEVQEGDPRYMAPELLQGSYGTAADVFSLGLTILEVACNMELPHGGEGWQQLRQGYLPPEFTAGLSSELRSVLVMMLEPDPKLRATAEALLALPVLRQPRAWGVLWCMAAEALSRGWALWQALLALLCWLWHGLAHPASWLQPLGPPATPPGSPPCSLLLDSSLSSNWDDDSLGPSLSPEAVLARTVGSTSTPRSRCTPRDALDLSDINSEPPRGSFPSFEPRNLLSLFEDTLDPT

Row | IC50 [µM] | SMILES
1 | 0.0107 | Cc1cc2[nH]c(=O)c(N)c(-c3ccc(F)c4[nH]ncc34)c2nc1NC(C)C [Example 23, 3-Amino-4-(7-fluoro-1H-indazol-4-yl)-6-(isopropylamino)-7-methyl-1H-1,5-naphthyridin-2-one]
2 | 0.0152 | Cc1cc(C#CC2COC2)nc2c(-c3ccc(F)c4[nH]ncc34)c(N)c(=O)[nH]c12 [Example 150, 3-Amino-4-(7-fluoro-1H-indazol-4-yl)-8-methyl-6-[2-(oxetan-3-yl)ethynyl]-1H-1,5-naphthyridin-2-one]
3 | 0.0126 | COc1ncc(F)c2[nH]c(=O)c(N)c(-c3ccc(F)c4[nH]ncc34)c12 [Example 170, 3-amino-8-fluoro-4-(7-fluoro-1H-indazol-4-yl)-5-methoxy-1H-1,6-naphthyridin-2-one]
4 | 0.0114 | Cc1c([C@@H]2C[C@H]2C)cnc2c(-c3ccc(F)c4[nH]ncc34)c(N)c(=O)[nH]c12 (racemic) [Example 144, 3-Amino-4-(7-fluoro-1H-indazol-4-yl)-8-methyl-7-[rac-(1R,2R)-2-methylcyclopropyl]-1H-1,5-naphthyridin-2-one]
5 | 0.0175 | Cc1c(CC2CC2)cnc2c(-c3ccc(F)c4[nH]ncc34)c(N)c(=O)[nH]c12 [Example 131, 3-Amino-7-(cyclopropylmethyl)-4-(7-fluoro-1H-indazol-4-yl)-8-methyl-1H-1,5-naphthyridin-2-one]
6 | < 0.01 | Cc1nc(Cl)cc2c(-c3ccc(F)c4[nH]ncc34)c(N)c(=O)[nH]c12 [Example 175, 3-Amino-6-chloro-4-(7-fluoro-1H-indazol-4-yl)-8-methyl-1H-1,7-naphthyridin-2-one]
7 | 0.0112 | Nc1c(-c2ccc(F)c3[nH]ncc23)c2c(OC(F)F)nc(C3CC3)cc2[nH]c1=O [Example 168, 3-Amino-7-cyclopropyl-5-(difluoromethoxy)-4-(7-fluoro-1H-indazol-4-yl)-1H-1,6-naphthyridin-2-one]
8 | 0.0113 | Nc1c(-c2ccc(F)c3[nH]ncc23)c2ncc(-c3nccs3)cc2[nH]c1=O [Example 16, 3-Amino-4-(7-fluoro-1H-indazol-4-yl)-7-thiazol-2-yl-1H-1,5-naphthyridin-2-one]
9 | 0.0226 | COc1cnc2c(-c3ccc(F)c4[nH]ncc34)c(N)c(=O)[nH]c2c1 [Example 6, 3-Amino-4-(7-fluoro-1H-indazol-4-yl)-7-methoxy-1H-1,5-naphthyridin-2-one]
10 | < 0.01 | C#Cc1nc2c(-c3ccc(F)c4[nH]ncc34)c(N)c(=O)[nH]c2c(Cl)c1C [Example 111, 3-Amino-8-chloro-6-ethynyl-4-(7-fluoro-1H-indazol-4-yl)-7-methyl-1H-1,5-naphthyridin-2-one]
11 | 0.0118 | CCOc1cnc2c(-c3ccc(F)c4[nH]ncc34)c(N)c(=O)[nH]c2c1C [Example 140, 3-Amino-7-ethoxy-4-(7-fluoro-1H-indazol-4-yl)-8-methyl-1H-1,5-naphthyridin-2-one]
12 | 0.012 | Cc1cc2[nH]c(=O)c(N)c(-c3ccc(F)c4[nH]ncc34)c2nc1N1CCN(C2CC2)CC1 [Example 29, 3-Amino-6-(4-cyclopropylpiperazin-1-yl)-4-(7-fluoro-1H-indazol-4-yl)-7-methyl-1H-1,5-naphthyridin-2-one]
13 | < 0.01 | Cc1c(Br)cnc2c(-c3ccc(F)c4[nH]ncc34)c(N)c(=O)[nH]c12 [Example 115, 3-Amino-7-bromo-4-(7-fluoro-1H-indazol-4-yl)-8-methyl-1H-1,5-naphthyridin-2-one]
14 | 0.0175 | Cc1cc2[nH]c(=O)c(N)c(-c3ccc(F)c4[nH]ncc34)c2nc1OCCN(C)C [Example 068, 3-Amino-6-[2-(dimethylamino)ethoxy]-4-(7-fluoro-1H-indazol-4-yl)-7-methyl-1H-1,5-naphthyridin-2-one]
15 | 0.0147 | CCCOc1nc2c(-c3ccc(F)c4[nH]ncc34)c(N)c(=O)[nH]c2cc1C [Example 065, 3-Amino-4-(7-fluoro-1H-indazol-4-yl)-7-methyl-6-propoxy-1H-1,5-naphthyridin-2-one]
16 | 0.0116 | Cc1cc2[nH]c(=O)c(N)c(-c3ccc(F)c4[nH]ncc34)c2nc1OCC(F)(F)F [Example 066, 3-Amino-4-(7-fluoro-1H-indazol-4-yl)-7-methyl-6-(2,2,2-trifluoroethoxy)-1H-1,5-naphthyridin-2-one]

Row | IC50 [µM] | SMILES
17 | 0.0212 | Cc1cc2[nH]c(=O)c(N)c(-c3ccc(F)c4[nH]ncc34)c2nc1N1CC2(CN(C)C2)C1 [Example 27, 3-Amino-4-(7-fluoro-1H-indazol-4-yl)-7-methyl-6-(6-methyl-2,6-diazaspiro[3.3]heptan-2-yl)-1H-1,5-naphthyridin-2-one]
18 | 0.0134 | COc1nc(C2CC2)cc2[nH]c(=O)c(N)c(-c3ccc(F)c4[nH]ncc34)c12 [Example 169, 3-Amino-7-cyclopropyl-4-(7-fluoro-1H-indazol-4-yl)-5-methoxy-1H-1,6-naphthyridin-2-one]
19 | 0.0193 | Nc1c(-c2cccc3[nH]ncc23)c2ncc(C3CC3)cc2[nH]c1=O [Example 34, 3-Amino-7-cyclopropyl-4-(1H-indazol-4-yl)-1H-1,5-naphthyridin-2-one]
20 | 0.0156 | Cc1cc2[nH]c(=O)c(N)c(-c3ccc(F)c4[nH]ncc34)c2nc1N1CCC(O)C1 (centres unmarked) [Example 24, 3-Amino-4-(7-fluoro-1H-indazol-4-yl)-6-(3-hydroxypyrrolidin-1-yl)-7-methyl-1H-1,5-naphthyridin-2-one]
21 | 0.0107 | Cc1c(-c2nccs2)cnc2c(-c3ccc(F)c4[nH]ncc34)c(N)c(=O)[nH]c12 [Example 121, 3-Amino-4-(7-fluoro-1H-indazol-4-yl)-8-methyl-7-thiazol-2-yl-1H-1,5-naphthyridin-2-one]
22 | 0.0242 | CC(C)(O)c1cnc2c(-c3ccc(F)c4[nH]ncc34)c(N)c(=O)[nH]c2c1 [Example 20, 3-Amino-4-(7-fluoro-1H-indazol-4-yl)-7-(1-hydroxy-1-methyl-ethyl)-1H-1,5-naphthyridin-2-one]
23 | 0.0151 | Cc1c(Br)nc2c(-c3ccc(F)c4[nH]ncc34)c(N)c(=O)[nH]c2c1Cl [Example 108, 3-Amino-6-bromo-8-chloro-4-(7-fluoro-1H-indazol-4-yl)-7-methyl-1H-1,5-naphthyridin-2-one]
24 | 0.0185 | Cc1cc2[nH]c(=O)c(N)c(-c3ccc(F)c4[nH]ncc34)c2cc1N1CC2(COC2)C1 [Example 105, 3-Amino-4-(7-fluoro-1H-indazol-4-yl)-7-methyl-6-(2-oxa-6-azaspiro[3.3]heptan-6-yl)-1H-quinolin-2-one]
25 | 0.0153 | Cc1cc2[nH]c(=O)c(N)c(-c3ccc(F)c4[nH]ncc34)c2nc1N1CC2CC1CN2C (centres unmarked) [Example 30, 3-Amino-4-(7-fluoro-1H-indazol-4-yl)-7-methyl-6-(5-methyl-2,5-diazabicyclo[2.2.1]heptan-2-yl)-1H-1,5-naphthyridin-2-one]
26 | 0.0116 | Cn1cncc1-c1cnc2c(-c3ccc(F)c4[nH]ncc34)c(N)c(=O)[nH]c2c1 [Example 8, 3-Amino-4-(7-fluoro-1H-indazol-4-yl)-7-(3-methylimidazol-4-yl)-1H-1,5-naphthyridin-2-one]
27 | 0.0291 | Cc1cc2[nH]c(=O)c(N)c(-c3ccc(F)c4[nH]ncc34)c2nc1N1CCN(C(C)C)CC1 [Example 28, 3-Amino-4-(7-fluoro-1H-indazol-4-yl)-6-(4-isopropylpiperazin-1-yl)-7-methyl-1H-1,5-naphthyridin-2-one]
28 | 0.0179 | COc1c(C)cnc2c(-c3ccc(F)c4[nH]ncc34)c(N)c(=O)[nH]c12 [Example 51, 3-Amino-4-(7-fluoro-1H-indazol-4-yl)-8-methoxy-7-methyl-1H-1,5-naphthyridin-2-one]
29 | < 0.01 | Cc1cc2[nH]c(=O)c(N)c(-c3ccc(F)c4[nH]ncc34)c2nc1N1CCN(C)CC1 [Example 22, 3-Amino-4-(7-fluoro-1H-indazol-4-yl)-7-methyl-6-(4-methylpiperazin-1-yl)-1H-1,5-naphthyridin-2-one]
30 | < 0.01 | Nc1c(-c2ccc(F)c3[nH]ncc23)c2nccc(Cl)c2[nH]c1=O [Example 50, 3-Amino-8-chloro-4-(7-fluoro-1H-indazol-4-yl)-1H-1,5-naphthyridin-2-one]
31 | 0.0244 | COC(=O)C1CC(Oc2nc3c(-c4ccc(F)c5[nH]ncc45)c(N)c(=O)[nH]c3cc2C)C1 (centres unmarked) [Example 067, Methyl 3-[[7-amino-8-(7-fluoro-1H-indazol-4-yl)-3-methyl-6-oxo-5H-1,5-naphthyridin-2-yl]oxy]cyclobutanecarboxylate]
32 | < 0.01 | Cc1cc2[nH]c(=O)c(N)c(-c3ccc(F)c4[nH]ncc34)c2nc1N1CCNCC1 [Example 44, 3-Amino-4-(7-fluoro-1H-indazol-4-yl)-7-methyl-6-piperazin-1-yl-1H-1,5-naphthyridin-2-one]

Row | SMILES | IC50 [µM]
33 | Cc1cc2[nH]c(=O)c(N)c(-c3ccc(F)c4[nH]ncc34)c2nc1OC1CCC1 [Example 46, 3-Amino-6-(cyclobutoxy)-4-(7-fluoro-1H-indazol-4-yl)-7-methyl-1H-1,5-naphthyridin-2-one] | 0.0106
34 | Cc1cc2[nH]c(=O)c(N)c(-c3ccc(F)c4[nH]ncc34)c2nc1OC1CC(C(C)(C)O)C1 (centres unmarked) [Example 096, 3-Amino-4-(7-fluoro-1H-indazol-4-yl)-6-[3-(1-hydroxy-1-methyl-ethyl)cyclobutoxy]-7-methyl-1H-1,5-naphthyridin-2-one] | 0.0652
35 | Cc1ncc(OC2CCC2)c2c(-c3ccc(F)c4[nH]ncc34)c(N)c(=O)[nH]c12 [Example 189, 3-Amino-5-(cyclobutoxy)-4-(7-fluoro-1H-indazol-4-yl)-8-methyl-1H-1,7-naphthyridin-2-one] | 0.0106
